This is an account of results in US20110045033A1, “Combination of Itriglumide and Proton Pump Inhibitors in the Treatment of Gastrointestinal and Related Disorders” (priority 2005, published 2011).

A word on the ED50: it is the midpoint of the dose-response relation.

The test system of assay [1] is chronic model of reflux esophagitis in rats. As to the kind of experiment: Chronic acid reflux esophagitis in rat (forestomach ligation and pyloric stenosis). Type of assay: in vivo. The conditions noted are these: 15 days; for Occurrence of Esophagitis: animals affected/surviving. From the text:
The method was according to Omura N., et al. (Scand. J gastroenterol. 1999; 34:948-953) with slight modifications.
Male Wistar rats, 10 weeks old, were kept in controlled animal room 1 week prior to use and fed with standard diet. A day before the experiment rats were deprived of food but allowed free access to water.
This model consists of gastric outlet obstruction obtained by ligation of forestomach and pyloric stenosis. Rats were operated under air/halothane anaesthesia; after opening the abdomen with a median incision, the transitional region between forestomach and the glandular portion was ligated and then the forestomach was blocked with other two ligations. Pyloric stenosis were obtained by wrapping a duodenum near the pylorus with a piece (about 2 mm) of a catheter (3.5 mm inner diameter) as a ring. The ring was closed by thermocautery and fixed to the pylorus with a nylon thread. The abdomen was closed by suturing.
After the operation the rats (10 animals per group) were deprived of diet for 48 h but had free access to water.
Drugs were administered once a day, starting on day zero, by subcutaneous injection. During the experiment body weight as well as the mortality were recorded.
The animals were killed 15 days later by overdose of ether inhalation. The abdomen was opened and the esophagus excised and placed on a cork plate. The presence and extension of esophagitis sites was evaluated by macroscopic observation. Each site of esophagitis was measured (mm of length×mm of width). Data were expressed as mm^2 of esophagitis area (mean area group).

The test system of assay [2] is acute reflux esophagitis in pylorus-ligated rats. As to the kind of experiment: Acute reflux esophagitis in pylorus-ligated rats (macroscopic lesion index). Type of assay: in vivo, rat. Details: key to Average Score lesions: lesion index 0 = no lesion to 6 = hemorrhage >40 mm or perforation. The conditions noted are these: for % Effect vs. control / Average Score lesions: 3 h after ligation; for ED50: Rattus norvegicus, intraduodenal, drug administered separately, intraduodenally, from dose-response regression line, read-out: ED50 (dose which reduces of 50% the esophagus lesions). As for the experimental part: Male rats of 175-200 g body weight were fasted for 24 hours prior the experiment. Water was allowed ad libitum. Under ether anaesthesia, the abdomen was incised along the midline, and both pylorus and limiting ridge (transitional region between the forestomach and corpus) were simultaneously ligated. Consequently, the total capacity of the stomach to hold gastric juice was greatly diminished, resulting in reflux of gastric juice into the esophagus. Following ligation of pylorus and limiting ridge, the test compounds were given intraduodenally (5 ml/kg), and the abdomen was closed by suturing. After 3 hours, rats were killed by ether overdose and the gastroesophageal portion was excised. The lesion in the thoracic esophagus was scored macroscopically, using a lesion index according to the following criteria: no lesion as 0; oedema as 1; reddening as 2; the length of hemorrhagic area <20 mm as 3; the length of hemorrhagic area 20-30 mm as 4; the length of hemorrhagic area 30-40 mm as 5; the length of hemorrhagic area >40 mm or perforation as 6.
The doses of the tested compounds which reduce of 50% the esophagus lesions (ED50) were calculated from the dose-response regression line.

Setting [3] is: Itriglumide 10 mg/kg s.c. once a day.
Where [4] appears, read: Itriglumide 2.5 mg/kg intraduodenally.
[5] abbreviates: Itriglumide 5.0 mg/kg intraduodenally.
The mark [6] stands for this setting: Itriglumide 10 mg/kg intraduodenally.
Setting [7] is: Itriglumide 20 mg/kg intraduodenally.
Setting [8] is: Omeprazole 0.5 mg/kg s.c. once a day.
The mark [9] stands for this setting: Omeprazole 1 mg/kg s.c. once a day.
Setting [10] is: Omeprazole 2 mg/kg s.c. once a day.
Setting [11] is: Omeprazole 0.1 mg/kg intraduodenally.
The mark [12] stands for this setting: Omeprazole 0.3 mg/kg intraduodenally.
[13] abbreviates: Omeprazole 1.0 mg/kg intraduodenally.
The mark [14] stands for this setting: Omeprazole 3.0 mg/kg intraduodenally.

For `Cc1cc(C)c(NC(=O)C[C@H](CC(=O)O)c2cccc3ccccc23)c(C(=O)N2CCC3(CCCC3)CC2)c1` [Itriglumide, (R)-1-napthalenepropanoic acid-β[2[(2-(8-azaspiro[4.5.]dec-8-ylcarbonyl)4,6-dimethylphenyl]amino]-2-oxoethyl]], in assay [1] (setting [3]), the “% Protection vs. control” value stood at 42.1%, the “Survival Rate (%)” value turned out to be 90%, the “Total average size of ulcers (mm^2)” value is 33 mm^2 and the “Occurrence of Esophagitis” value is 4/9. In assay [2] (setting [4]), the “% Effect vs. control” value amounted to 0% and the “Average Score lesions” value was 5.2. Besides, in assay [2] (setting [5]), the “% Effect vs. control” value came to 27.5% and the “Average Score lesions” value came to 3.7. Also, in assay [2] (setting [6]), the “% Effect vs. control” value is 51.0% and the “Average Score lesions” value was found to be 2.5. For the same compound, in assay [2] (setting [7]), the “% Effect vs. control” value was determined as 82.3% and the “Average Score lesions” value is listed as 0.9. In addition, the ED50 in assay [2] was 9.1 mg/kg.

Take `COc1ccc2[nH]c([S+]([O-])Cc3ncc(C)c(OC)c3C)nc2c1` (centres unmarked) [Omeprazole]: the “% Protection vs. control” value is 17.5% in assay [1] (setting [8]), 28.0% in assay [1] (setting [9]) and 49.1% in assay [1] (setting [10]). In addition, the “Survival Rate (%)” value in assay [1] (setting [8]) came to 80%; in assay [1] (setting [9]), 90%; in assay [1] (setting [10]) it was 90%. Besides, the “Total average size of ulcers (mm^2)” value was 47 mm^2 in assay [1] (setting [8]), 41 mm^2 in assay [1] (setting [9]) and 29 mm^2 in assay [1] (setting [10]). Further, the “Occurrence of Esophagitis” value in assay [1] (setting [8]) is given as 6/8; in assay [1] (setting [9]), 6/9; in assay [1] (setting [10]), 3/9. Also, the ED50 in assay [1] (Rattus norvegicus, sc, 360 h, Omeprazole alone, s.c. once a day) was determined as 2.2 mg/kg; in assay [2] it was 4.9 mg/kg. Besides, the “% Effect vs. control” value was 3.4% in assay [2] (setting [11]), 0% in assay [2] (setting [12]), 17.2% in assay [2] (setting [13]) and 53.4% in assay [2] (setting [14]). Besides, the “Average Score lesions” value is reported as 5.6 in assay [2] (setting [11]), 5.8 in assay [2] (setting [12]), 4.8 in assay [2] (setting [13]) and 2.7 in assay [2] (setting [14]).
